In brackets after ≈: the same amount, converted by molar mass. Several values for one entry are separate records, joined by “and”; a condition that tells them apart may be missing. Equal entries are not always repeated. Where two headings read alike, the source gives them in different places.
Key:
[1] = Dynamic covalent ring opening with thiol 10, 1H NMR kinetics; type: physicochemical; details: pD 2.7
Experimental: The dynamic covalent opening of CTO 3 with thiols yields product 9 with a disulfide and a sulfinate (Figure 3B). Consistent with short chalcogen bonds found in silico, the opening of CTO 3 was instantaneous on an NMR timescale with most thiols. To decelerate ring opening, bulky thiols were considered in combination with lowered pH to deactivate the nucleophile. With N-Ac-D-penicillamine 10, the opening of 5 mM CTO 3 in phosphate buffer/DMSO-d6 9:1 was still immediate at pD 6.7 but became detectable in ^1H NMR spectroscopy kinetics under more acidic conditions. The ring-opening rate constants k^O were estimated by fitting the initial velocities to second-order kinetics. Only lower bound rates were approximated from the earliest determined substrate conversions when reactions were still too fast despite the unfavorable conditions. At pD 5.4, dynamic covalent ring opening of CTO 3 with equimolar tertiary thiol 10 occurred with k^O > 0.49 M^–1 s^–1 and equilibrated at K = 6.0 × 10^3 M^–1 (Table 1, entry 1, Figures S4 and S5). At pD 2.7, further deceleration to k^O = 0.10 M^–1 s^–1 shifted the equilibrium to K = 500 M^–1 (Table 1, entry 2, Figures S6 and S7). […] At equilibrium, the concentration of thiol 10 further decreased slowly due to oxidation into the homodimer (Figure 3C, diamonds).
Equilibrium constants for reactions with two reactants A and B and a product C are […]
3.1.1. Dynamic Covalent Ring Opening with Thiols
General procedure A (at 5 mM): To a solution of deuterated sodium phosphate (200 mM in D 2O, pD 2.7 or 5.4, 180 mM final concentration), a stock solution of substrate (0.10 M in DMSO-d6, 5.0 mM final concentration) was added and stirred. Then a stock solution of 10 (0.10 M in DMSO- d6, 5.0 mM final concentration) was added and vigorously stirred at room temperature. The solution was transferred immediately to an NMR tube and NMR data were recorded repeatedly. The concentration of the substrate or thiol at each time plot was calculated by comparing the integrals of the peaks indicated with arrows in the figures, and plotted. The data points were fitted to obtain k1 with the Equation (S6) or (S7) using Graphpad Prism.
General procedure B (at 2 mM): To a solution of deuterated sodium phosphate (200 mM in D 2O, pD 2.7 or 5.4, 180 mM final concentration), DMSO- d6 (10% DMSO- d6 in the reaction mixture) and a stock solution of substrate (0.10 M in DMSO- d6, 2.0 mM final concentration) were added and stirred. Then a stock solution of 10 (0.10 M in DMSO- d6, 2.0 mM final concentration) was added and vigorously stirred at room temperature. The solution was transferred immediately to an NMR tube and NMR data were recorded repeatedly. The concentration of the substrate or thiol at each time plot was calculated by comparing the integrals of the peaks indicated with arrows in the figures, and plotted. The data points were fitted to obtain k1 with the Equation (S6) or (S7) using Graphpad Prism.
General procedure C (for thiosulfinates): To a solution of deuterated sodium phosphate (200 mM in D 2O, pD 5.4, 170 mM final concentration), a stock solution of substrate (0.10 M in DMSO- d6, 5.0 mM final concentration) was added and stirred. Then a stock solution of 10 (0.10 M in DMSO- d6, 10 mM final concentration) was added and vigorously stirred at room […]
data points were fitted to obtain k1 with the Equation (S14) or (S16) using Graphpad Prism. […]
3.1.2. Dependence of Ring Opening on Proticity
A mixture of deuterated phosphoric acid and NaOD (30% in D 2O), which gave pD 2.7 in D2O, was used as buffer in all solvent mixtures. To a solution of deuterated sodium phosphate (20 mM final concentration) in a mixture of D 2O and DMSO- d6 (540 μL, final D 2O content: […]
concentration) was added and stirred. Then a stock solution of 10 (0.10 M in DMSO- d6, 5.0 mM final concentration) was added and vigorously stirred at room temperature. The solution was transferred immediately to an NMR tube and 1H NMR data were recorded repeatedly. […]

HK cells, transporter 31 = experiment: HCHT imaging: inhibition of cytosolic delivery of ETP transporter 31; type: cell-based, Human; details: inhibitor 1 h; for IC50 / IC15: Homo sapiens; for IC50: read-out: IC50 (concentration needed to reach 50% inhibition), transporter 31 10 μM; for IC15: read-out: MIC (concentration needed to reach 15% inhibition), transporter 31 10 μM; for MIC (concentration needed to reach 15% inhibition): transporter 31 10 μM
Experimental: (§1) Uptake inhibition was measured by the automated HCHT imaging used already to elaborate on cytosolic delivery. For inhibitor screening, HK cells in multiwell plates were incubated with increasing concentrations of inhibitors, followed by fluorescent transporters 28, 31, and 32 at a constant concentration. […] If inhibitors are removed before the addition of transporters 28, 31, and 32, the method is referred to as “pre-incubation”. This is of interest to minimize exchange between the transporter and the inhibitor but is often problematic because dynamic covalent exchange between the inhibitor and cellular target can also be reversed and thus lost. The complementary “co-incubation” operates without inhibitor removal before the addition of transporters 28, 31, and 32.
(§2) 536/40 nm emission filter, and red with 531/40 nm excitation filter and 593/40 nm emission […]
(§3) 4.3. HCHT Inhibitor Screening
(§4) Pre-Incubation Method. As in ref. S1. HeLa Kyoto cells were seeded at 8 ×10^4 cells/mL in FluoroBrite DMEM + 10% FBS on μ-Plate 96-well Black ibiTreat sterile and incubated at 37 °C with 5% CO 2 for 24 h. Then, the medium was removed and cells were washed with PBS ([…]), fresh FluoroBrite DMEM medium (4 × 150 μL/well) was added into the cells using a plate washer (Biotek EL406®), keeping a final volume of 135 μL/well. Different concentrations of the inhibitors were prepared by serial dilution with 10% final concentration DMSO (10× in PBS). The solution of compounds 4 and 33 was prepared final DMSO concentration of 10% in each dilution (10× in PBS). These inhibitor solutions (10× final concentration), transporter 28 (10× in DMEM), transporters 31 and 32 (10× in PBS) a solution of HOE (100 μg/mL) and PI (10 μg/mL) in PBS were prepared freshly in a 96-well V-bottom plate before adding to the cells. The inhibitor solutions from the V-bottom plate were added to the cells (15 μL/well) in a final volume of 150 μL/well using an electronic multichannel pipette and cells were incubated for 1 h at 37 °C with 5% CO 2. After this incubation, cells were washed again with PBS and DMEM using the plate washer (in the way mentioned above), and transporter 28 , 31 or 32 from the V-bottom plate was added (15 μL/well) to the cells in a final volume of 150 μL/well. A final concentration of each transporter 28 , 31 and 32 was 5 μM, 10 μM and 0.5 μM, respectively, except for the control wells, where only PBS was added (15 μL/well). Cells treated with transporter 28 or 31 were incubated for 30 min, and cells treated with 32 were incubated for 2 h at 37 °C with 5% CO 2. After that, the cells were washed with PBS and DMEM using the plate washer, and the solution of Hoechst 33342 and PI from the V-bottom plate was added (15 μL/well) to the cells in a final volume of 150 μL/well. After 15 min of incubation at 37 °C with 5% CO 2, the cells were washed and kept in clean FluoroBrite
(§5) DMEM. For live cell imaging, samples were kept at 37 °C with 5% CO 2 during the microscope imaging. The distribution of fluorescence stained cells was analyzed without fixing using an […]

in vitro = details: human
HeLa Kyoto cells = experiment: Relative viability (HOE/PI) in HCHT screening
Experimental: One advantage of HCHT imaging of cellular uptake compared to flow cytometry[38],[42],[43] is that it simultaneously gives information on toxicity and intracellular localization. […] Information on the intracellular localization of reporters can be quantified through segmentation of cellular compartments stained with specific markers.[52]
as §1
Relative cell viability ( RV) for each condition in the presence of inhibitors was calculated […]
of the relative cell viability ( RVrel) to the concentration of inhibitors ( cinhibitor ) was plotted and fitted with Equation (S19) to retrieve the concentration causing 50% cell growth inhibition (RV50) value and the Hill coefficient ( n).

HK cells, transporter 28 = experiment: HCHT imaging: inhibition of cytosolic delivery of CTO transporter 28; type: cell-based, Human; details: inhibitor 1 h; for IC15: read-out: MIC (concentration needed to reach 15% inhibition), transporter 28 5 μM
Experimental: as §1, §2, §3, §4, §5

HK cells, transporter 32 = test system: HK cells, transporter 32; design: method as in PMID 34173696; key to inhibition of OPS 32 uptake (heatmap): –: −: inactive; ++: qualitative inhibition of SC2 uptake; details: cited from earlier work
[2] = with transporter 31, co-incubation (C)
[3] = Homo sapiens, 1 h, read-out: IC50 (concentration needed to reach 50% inhibition), transporter 28 5 μM, co-incubation (C)
[4] = Homo sapiens, 1 h, co-incubation (C)
[5] = transporter 28 5 μM, co-incubation (C)
[6] = with transporter 28, co-incubation (C)
[7] = Homo sapiens, 1 h, pre-incubation (P)
[8] = Homo sapiens, read-out: IC50 (concentration needed to reach 50% inhibition), transporter 28 5 μM, pre-incubation (P)
[9] = transporter 28 5 μM, pre-incubation (P)

## CC1(C)O[C@H]2CSS(=O)(=O)C[C@H]2O1 [Compound 13]
[1]; equimolar 10, rt, 90% D2O, Na+ phosphate 180 mM, substrate 2 mM
  k^O, rate constant of ring opening (or equivalent for acyclic controls): 2.3 M^–1 s^–1
[1]; 90% D2O, 2 mM
  krel^O, rate constant of ring opening relative to 3: 23
[1]; with thiol 10, 2 mM
  ring-opening rate relative to acyclic control 14 (fold): about 4 ×
HK cells, transporter 31; 1 h, co-incubation (C)
  IC50: > 10 µM
  IC15: > 10 µM
In vitro
  viability at 7 h, 5 µM: 125 ± 5%
HeLa Kyoto cells; [2]
  RV50 (concentration needed to lower relative viability by 50%): 29 ± 6 µM

## O=C(NCCCCCCNC(=O)O[C@H]1CSS(=O)(=O)C[C@H]1OCc1ccccc1)O[C@H]1CSS(=O)(=O)C[C@H]1OCc1ccccc1 [Compound 33]
HK cells, transporter 28; [3]
  IC50: > 5 µM
HK cells, transporter 28; [4]
  IC15: 1.3 µM
HK cells, transporter 28; [5]
  MIC (concentration needed to reach 15% inhibition): 1 µM
In vitro
  viability at 7 h, 10 µM: 107%
HeLa Kyoto cells; [6]
  RV50 (concentration needed to lower relative viability by 50%): >5 µM

## O=C(NCCCCCCNC(=O)O[C@H]1CSS(=O)(=O)C[C@H]1O)O[C@H]1CSS(=O)(=O)C[C@H]1O [Compound 41]
HK cells, transporter 28; [3]
  IC50: 8 µM
HK cells, transporter 28; [4]
  IC15: 1 µM
HK cells, transporter 28; [5]
  MIC (concentration needed to reach 15% inhibition): 1 µM
In vitro
  viability at 7 h, 5 µM: 100%
HeLa Kyoto cells; [6]
  RV50 (concentration needed to lower relative viability by 50%): >50 µM

## CC(C)(C)[Si](C)(C)O[C@H]1CS(=O)(=O)SC[C@H]1OC(=O)NCCNC(=O)CC(O)(CC(=O)NCCNC(=O)O[C@H]1CSS(=O)(=O)C[C@H]1O[Si](C)(C)C(C)(C)C)C(=O)NCCNC(=O)O[C@@H]1CSS(=O)(=O)C[C@@H]1O[Si](C)(C)C(C)(C)C (some centres unmarked) [Compound 42]
HK cells, transporter 28; [7]
  IC15: 1.8 µM
HK cells, transporter 28; [8]
  IC50: 5.1 ± 0.4 µM
HK cells, transporter 28; read-out: IC50 (concentration needed to reach 50% inhibition), transporter 28 5 μM, pre-incubation (P)
  IC50: 5 µM
HK cells, transporter 28; [9]
  MIC (concentration needed to reach 15% inhibition): 2 µM (≈ 2.58 µg/mL)
In vitro
  viability at 7 h, 10 µM: 107%
HeLa Kyoto cells; with transporter 28, pre-incubation (P)
  RV50 (concentration needed to lower relative viability by 50%): 22 ± 3 µM and 22 µM

## O=C(O)Cn1[se]c2ccccc2c1=O [Compound 45, reference compound]
HK cells, transporter 31; 1 h, co-incubation (C)
  IC50: 8 µM
  IC15: 2.2 µM
HK cells, transporter 31; 1 h, pre-incubation (P)
  IC15: < 1 µM
HK cells, transporter 31; pre-incubation (P)
  IC50: 10 µM
  MIC (concentration needed to reach 15% inhibition): <1 µM
HK cells, transporter 31; co-incubation (C)
  MIC (concentration needed to reach 15% inhibition): 2 µM
HK cells, transporter 28; [7]
  IC15: 1.2 µM
HK cells, transporter 28; [8]
  IC50: 8 µM
HK cells, transporter 28; [9]
  MIC (concentration needed to reach 15% inhibition): 1 µM (≈ 0.256 µg/mL)
In vitro
  viability at 7 h, 50 µM: 81%
HK cells, transporter 32; pre-incubation conditions
  inhibition of OPS 32 uptake (heatmap): –
HK cells, transporter 32; read-out: IC50 (concentration needed to reach 50% inhibition), transporter 32 0.5 or 1 μM, pre-incubation (P)
  IC50: > 100 µM
HK cells, transporter 32; transporter 32 0.5 or 1 μM, pre-incubation (P)
  MIC (concentration needed to reach 15% inhibition): >100 µM

## O=c1c2ccccc2[se]n1-c1ccccc1 [Compound 46, Ebselen, reference compound]
HK cells, transporter 31; 1 h, co-incubation (C)
  IC50: 49 µM
  IC15: < 2 µM
HK cells, transporter 31; co-incubation (C)
  MIC (concentration needed to reach 15% inhibition): <2 µM
In vitro
  viability at 7 h, 50 µM: 40%
HeLa Kyoto cells; [2]
  RV50 (concentration needed to lower relative viability by 50%): >100 µM

Source: PMC9088311, “Cyclic Thiosulfonates for Thiol-Mediated Uptake: Cascade Exchangers, Transporters, Inhibitors” (JACS Au, 2022)
